The experiment concerns the target T1, Ubiquitin carboxyl-terminal hydrolase 30 (Homo sapiens, UniProt Q70CQ3).
T1 sequence (Q70CQ3 whole entry): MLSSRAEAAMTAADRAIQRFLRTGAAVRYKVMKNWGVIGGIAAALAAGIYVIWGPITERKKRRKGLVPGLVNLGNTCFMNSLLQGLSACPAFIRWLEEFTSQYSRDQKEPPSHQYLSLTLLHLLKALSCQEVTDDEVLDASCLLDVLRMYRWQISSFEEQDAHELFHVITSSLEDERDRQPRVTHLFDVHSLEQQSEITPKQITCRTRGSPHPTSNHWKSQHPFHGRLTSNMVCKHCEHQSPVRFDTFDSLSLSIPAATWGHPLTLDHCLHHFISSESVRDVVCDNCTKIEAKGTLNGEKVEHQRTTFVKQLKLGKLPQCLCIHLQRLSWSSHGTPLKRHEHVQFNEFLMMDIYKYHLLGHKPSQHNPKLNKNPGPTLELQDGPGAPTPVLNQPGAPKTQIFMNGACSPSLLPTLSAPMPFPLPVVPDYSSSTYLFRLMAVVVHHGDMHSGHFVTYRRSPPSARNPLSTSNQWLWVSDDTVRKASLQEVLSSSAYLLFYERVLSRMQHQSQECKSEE
The experiment in a line: Biochemical Fluorescence Intensity Kinetic Assay/Biochemical Fluorescence Intensity Assay: USP30 Biochemical Fluorescence Intensity Kinetic Assay.Reactions were performed in duplicate in black 384 well plates (small volume, Greiner 784076) in a final reaction volume of 21 μl. USP30 CD (Boston Biochem E-582 or 57-517, #64-0057-050 Ubiquigent) was diluted in reaction buffer (40 mM Tris, pH 7.5, 0.005% Tween 20, 0.5 mg/ml BSA, 5 mM beta-mercaptoethanol) to the equivalent of 0, 0.0005, 0.001, 0.005, and 0.01 μl/well. Buffer was optimised for optimal temperature, pH, reducing agent, salts, time of incubation, and detergent. Reactions were initiated by the addition of Ubiquitin-Rhodamine 110 (U-555, Boston Biochem) at a final concentration of 100 nM. Reactions were incubated at room temperature and read every 2 min for 120 min. Readings were performed on a Pherastar Plus (BMG Labtech). […] A typical 8-point dilution series would be 100, 30, 10, 3, 1, 0.3, 0.1, 0.03 μM final. Reactions were performed in duplicate in black 384 well plates (small volume, Greiner 784076) in a final reaction volume of 21 μl. Either 1 μl of 50% DMSO or diluted compound was added to the plate. USP30 was diluted in reaction buffer (40 mM Tris, pH 7.5, 0.005% Tween 20, 0.5 mg/ml BSA, 5 mM beta-mercaptoethanol) to the equivalent of 0.001 μl/well and 10 μl of diluted USP30 was added to the compound. […].

A word on the IC50: it is the point on the concentration scale where inhibition reaches its midpoint. For the compound `N#CN1C[C@H]2CCN(C(=O)N3CCc4ccccc43)[C@H]2C1`, the IC50 result is “in the range around 5.5 µM”.
As for `N#CN1CC[C@@H](NC(=O)c2ccc(N3CCOCC3)cc2)C1`, the IC50 entry was “in the range around 0.55 µM”.

The record behind these values is ChEMBL document CHEMBL5727761, “1-cyano-pyrrolidine compounds as USP30 inhibitors” (2020).
